The values below come from paper PMC4685510, “A Cell Biologist’s Field Guide to Aurora Kinase Inhibitors” (Frontiers in Oncology, 2015).

What all share (test): biochemical
Format in all cases: biochemical

The target in assay [1] is 363 human kinases (including Aurora A/B/C) (Homo sapiens, UniProt P04049). The settings on record: RAF1; for remaining activity at 0.5 µM / remaining activity at 0.1 µM: read-out: % Enzyme Activity (relative to DMSO controls); for remaining activity at 0.1 µM: 100 nM.
Text: (§1) However, the Aurora A/B selectivity ratios derived from our in vitro and in vivo data can be compared to prioritize inhibitors.
Assay [2] has as its target T1, 363 human kinases (including Aurora A/B/C) (Homo sapiens, UniProt P15735).
T1 sequence (P15735 1-406): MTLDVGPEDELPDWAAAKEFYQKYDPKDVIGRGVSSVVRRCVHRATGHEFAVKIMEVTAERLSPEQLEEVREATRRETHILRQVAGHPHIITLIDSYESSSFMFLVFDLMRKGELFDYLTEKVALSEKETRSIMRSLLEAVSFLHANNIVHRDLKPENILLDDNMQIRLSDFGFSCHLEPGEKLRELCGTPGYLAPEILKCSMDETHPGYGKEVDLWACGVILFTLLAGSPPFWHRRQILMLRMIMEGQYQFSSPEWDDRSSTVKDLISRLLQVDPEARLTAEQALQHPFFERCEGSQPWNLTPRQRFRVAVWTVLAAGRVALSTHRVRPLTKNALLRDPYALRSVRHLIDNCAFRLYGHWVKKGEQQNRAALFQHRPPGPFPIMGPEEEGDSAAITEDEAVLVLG
The conditions noted are these: PHKg2; for remaining activity at 0.5 µM / remaining activity at 0.1 µM: read-out: % Enzyme Activity (relative to DMSO controls); for remaining activity at 0.1 µM: 100 nM.
Text: as §1

For assay [3], the target named is 363 human kinases (including Aurora A/B/C) (Homo sapiens, UniProt P36894). The conditions noted are these: ALK3/BMPR1A, [ATP] 1 µM; for remaining activity at 0.5 µM / remaining activity at 0.1 µM: read-out: % Enzyme Activity (relative to DMSO controls); for remaining activity at 0.1 µM: 100 nM.
Text: as §1
For assay [4], the target named is 363 human kinases (including Aurora A/B/C) (Homo sapiens, UniProt P41240). The conditions noted are these: CSK, [ATP] 15 µM; for remaining activity at 0.5 µM / remaining activity at 0.1 µM: read-out: % Enzyme Activity (relative to DMSO controls); for remaining activity at 0.1 µM: 100 nM.
Text: as §1
Assay [5] addresses 363 human kinases (including Aurora A/B/C) (Homo sapiens, UniProt P51451). The conditions noted are these: BLK, [ATP] 10 µM; for remaining activity at 0.5 µM / remaining activity at 0.1 µM: read-out: % Enzyme Activity (relative to DMSO controls); for remaining activity at 0.1 µM: 100 nM.
Text: as §1
The target of assay [6] is T2, 363 human kinases (including Aurora A/B/C) (Homo sapiens, UniProt P51956).
T2 sequence (P51956 1-506): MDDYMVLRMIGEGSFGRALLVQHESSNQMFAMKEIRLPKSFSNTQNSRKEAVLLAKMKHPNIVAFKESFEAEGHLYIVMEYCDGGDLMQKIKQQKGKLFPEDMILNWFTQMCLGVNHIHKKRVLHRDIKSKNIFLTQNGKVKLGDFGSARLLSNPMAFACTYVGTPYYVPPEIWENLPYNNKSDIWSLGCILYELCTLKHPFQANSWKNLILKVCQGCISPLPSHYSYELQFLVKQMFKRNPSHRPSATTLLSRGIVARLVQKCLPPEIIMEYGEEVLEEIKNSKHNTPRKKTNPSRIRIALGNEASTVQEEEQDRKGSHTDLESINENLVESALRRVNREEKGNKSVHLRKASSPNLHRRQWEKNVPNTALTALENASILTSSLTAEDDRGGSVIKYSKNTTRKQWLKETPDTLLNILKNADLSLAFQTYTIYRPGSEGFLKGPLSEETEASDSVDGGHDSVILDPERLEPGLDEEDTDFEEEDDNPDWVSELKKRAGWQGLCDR
The conditions noted are these: NEK3; for remaining activity at 0.5 µM / remaining activity at 0.1 µM: read-out: % Enzyme Activity (relative to DMSO controls); for remaining activity at 0.1 µM: 100 nM.
Text: as §1

For assay [7], the target named is T3, 363 human kinases (including Aurora A/B/C) (Homo sapiens, UniProt P52564).
T3 sequence (P52564 1-334): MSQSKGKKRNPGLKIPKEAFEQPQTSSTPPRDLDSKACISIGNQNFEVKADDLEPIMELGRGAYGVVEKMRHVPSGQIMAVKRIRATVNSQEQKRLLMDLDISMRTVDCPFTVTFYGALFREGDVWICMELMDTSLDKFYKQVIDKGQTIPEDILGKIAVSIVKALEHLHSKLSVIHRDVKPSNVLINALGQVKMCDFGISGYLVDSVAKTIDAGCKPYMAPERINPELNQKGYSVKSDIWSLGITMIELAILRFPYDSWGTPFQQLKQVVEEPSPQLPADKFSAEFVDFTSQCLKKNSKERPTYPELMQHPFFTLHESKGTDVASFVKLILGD
The conditions noted are these: MKK6; for remaining activity at 0.5 µM / remaining activity at 0.1 µM: read-out: % Enzyme Activity (relative to DMSO controls); for remaining activity at 0.1 µM: 100 nM.
Text: as §1

Assay [8] addresses T4, 363 human kinases (including Aurora A/B/C) (Homo sapiens, UniProt Q12852).
T4 sequence (Q12852 1-859): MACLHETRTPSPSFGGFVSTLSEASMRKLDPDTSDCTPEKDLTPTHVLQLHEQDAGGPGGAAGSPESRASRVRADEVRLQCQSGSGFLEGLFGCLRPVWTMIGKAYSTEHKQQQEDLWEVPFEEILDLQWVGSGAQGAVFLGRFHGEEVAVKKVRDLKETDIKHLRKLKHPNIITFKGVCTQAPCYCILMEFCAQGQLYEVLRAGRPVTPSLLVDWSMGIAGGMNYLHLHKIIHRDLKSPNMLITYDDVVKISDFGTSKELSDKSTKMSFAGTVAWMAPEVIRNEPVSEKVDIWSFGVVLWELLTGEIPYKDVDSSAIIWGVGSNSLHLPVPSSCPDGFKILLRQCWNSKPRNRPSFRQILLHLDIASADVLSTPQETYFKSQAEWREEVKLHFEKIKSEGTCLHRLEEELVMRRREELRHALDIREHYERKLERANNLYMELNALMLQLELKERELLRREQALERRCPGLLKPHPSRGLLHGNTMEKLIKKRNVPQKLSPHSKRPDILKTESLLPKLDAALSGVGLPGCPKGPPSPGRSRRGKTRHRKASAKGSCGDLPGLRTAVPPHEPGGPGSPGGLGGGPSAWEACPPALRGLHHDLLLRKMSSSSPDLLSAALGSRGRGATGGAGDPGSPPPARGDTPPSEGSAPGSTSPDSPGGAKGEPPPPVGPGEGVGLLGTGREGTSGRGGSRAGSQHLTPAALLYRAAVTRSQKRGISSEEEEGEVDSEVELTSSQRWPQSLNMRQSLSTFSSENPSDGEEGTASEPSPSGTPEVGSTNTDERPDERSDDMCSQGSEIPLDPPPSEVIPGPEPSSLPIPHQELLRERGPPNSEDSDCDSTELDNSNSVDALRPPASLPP
The settings on record: DLK/MAP3K12, [ATP] 30 µM; for remaining activity at 0.5 µM / remaining activity at 0.1 µM: read-out: % Enzyme Activity (relative to DMSO controls); for remaining activity at 0.1 µM: 100 nM.
Text: as §1

For assay [9], the target named is 363 human kinases (including Aurora A/B/C) (Homo sapiens, UniProt Q14012). The settings on record: CAMK1a, [ATP] 20 µM; for remaining activity at 0.5 µM / remaining activity at 0.1 µM: read-out: % Enzyme Activity (relative to DMSO controls); for remaining activity at 0.1 µM: 100 nM.
Sequence of 363 human kinases (including Aurora A/B/C) (Homo sapiens, UniProt Q14012) (Q14012 whole entry): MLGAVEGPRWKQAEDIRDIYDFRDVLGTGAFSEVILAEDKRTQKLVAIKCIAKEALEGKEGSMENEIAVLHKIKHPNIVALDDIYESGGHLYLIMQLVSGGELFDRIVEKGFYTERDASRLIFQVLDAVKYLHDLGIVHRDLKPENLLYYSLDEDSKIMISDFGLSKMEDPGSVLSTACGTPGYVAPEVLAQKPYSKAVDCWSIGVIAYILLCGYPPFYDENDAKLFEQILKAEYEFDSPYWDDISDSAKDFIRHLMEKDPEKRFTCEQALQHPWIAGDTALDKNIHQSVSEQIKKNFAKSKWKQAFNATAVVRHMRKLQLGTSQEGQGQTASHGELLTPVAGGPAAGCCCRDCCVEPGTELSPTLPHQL
Text: as §1

Sequence of 363 human kinases (including Aurora A/B/C) (Homo sapiens, UniProt P04049) (P04049 whole entry): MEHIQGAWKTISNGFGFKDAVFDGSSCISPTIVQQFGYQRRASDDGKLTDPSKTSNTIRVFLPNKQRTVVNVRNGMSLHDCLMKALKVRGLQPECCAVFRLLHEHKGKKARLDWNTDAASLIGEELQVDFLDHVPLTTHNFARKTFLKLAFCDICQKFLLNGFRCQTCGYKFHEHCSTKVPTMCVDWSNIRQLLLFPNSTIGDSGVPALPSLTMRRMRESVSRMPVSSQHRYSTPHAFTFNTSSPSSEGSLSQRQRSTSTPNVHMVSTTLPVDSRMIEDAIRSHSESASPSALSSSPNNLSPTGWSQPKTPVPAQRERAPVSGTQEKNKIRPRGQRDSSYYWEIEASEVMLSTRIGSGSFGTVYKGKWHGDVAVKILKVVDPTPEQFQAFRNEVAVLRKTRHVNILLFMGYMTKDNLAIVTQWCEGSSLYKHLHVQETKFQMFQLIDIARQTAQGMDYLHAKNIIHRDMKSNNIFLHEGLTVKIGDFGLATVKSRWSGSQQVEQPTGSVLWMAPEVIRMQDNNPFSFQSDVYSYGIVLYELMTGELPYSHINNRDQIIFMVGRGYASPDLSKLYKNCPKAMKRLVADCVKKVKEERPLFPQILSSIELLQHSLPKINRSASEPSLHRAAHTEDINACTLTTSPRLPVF
Sequence of 363 human kinases (including Aurora A/B/C) (Homo sapiens, UniProt P41240) (P41240 whole entry): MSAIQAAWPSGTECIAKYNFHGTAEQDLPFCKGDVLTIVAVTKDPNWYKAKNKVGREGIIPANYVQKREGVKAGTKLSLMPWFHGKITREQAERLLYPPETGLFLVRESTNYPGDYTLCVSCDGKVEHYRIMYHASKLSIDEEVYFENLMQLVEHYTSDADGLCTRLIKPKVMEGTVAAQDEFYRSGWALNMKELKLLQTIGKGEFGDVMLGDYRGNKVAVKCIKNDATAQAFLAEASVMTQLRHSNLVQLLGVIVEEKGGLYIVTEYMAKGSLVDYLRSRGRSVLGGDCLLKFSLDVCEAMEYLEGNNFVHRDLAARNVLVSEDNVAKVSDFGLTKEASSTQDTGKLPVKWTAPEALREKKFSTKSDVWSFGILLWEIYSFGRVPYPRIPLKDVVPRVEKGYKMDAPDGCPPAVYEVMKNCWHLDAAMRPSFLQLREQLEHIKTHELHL
Sequence of 363 human kinases (including Aurora A/B/C) (Homo sapiens, UniProt P51451) (P51451 whole entry): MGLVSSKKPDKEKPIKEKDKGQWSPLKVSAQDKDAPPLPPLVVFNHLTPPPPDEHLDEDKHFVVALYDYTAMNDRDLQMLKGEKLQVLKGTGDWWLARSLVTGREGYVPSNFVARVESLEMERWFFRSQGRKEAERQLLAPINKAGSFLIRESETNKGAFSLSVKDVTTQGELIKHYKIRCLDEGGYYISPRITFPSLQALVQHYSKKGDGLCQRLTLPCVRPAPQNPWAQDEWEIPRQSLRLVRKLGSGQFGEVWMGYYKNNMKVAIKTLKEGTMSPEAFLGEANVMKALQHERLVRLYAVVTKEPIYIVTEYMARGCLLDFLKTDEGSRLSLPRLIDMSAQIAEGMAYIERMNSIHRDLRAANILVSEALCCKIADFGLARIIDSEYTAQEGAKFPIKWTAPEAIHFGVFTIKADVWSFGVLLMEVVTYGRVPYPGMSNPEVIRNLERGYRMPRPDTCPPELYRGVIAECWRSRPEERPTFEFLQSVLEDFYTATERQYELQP
Sequence of 363 human kinases (including Aurora A/B/C) (Homo sapiens, UniProt P36894) (P36894 24-532): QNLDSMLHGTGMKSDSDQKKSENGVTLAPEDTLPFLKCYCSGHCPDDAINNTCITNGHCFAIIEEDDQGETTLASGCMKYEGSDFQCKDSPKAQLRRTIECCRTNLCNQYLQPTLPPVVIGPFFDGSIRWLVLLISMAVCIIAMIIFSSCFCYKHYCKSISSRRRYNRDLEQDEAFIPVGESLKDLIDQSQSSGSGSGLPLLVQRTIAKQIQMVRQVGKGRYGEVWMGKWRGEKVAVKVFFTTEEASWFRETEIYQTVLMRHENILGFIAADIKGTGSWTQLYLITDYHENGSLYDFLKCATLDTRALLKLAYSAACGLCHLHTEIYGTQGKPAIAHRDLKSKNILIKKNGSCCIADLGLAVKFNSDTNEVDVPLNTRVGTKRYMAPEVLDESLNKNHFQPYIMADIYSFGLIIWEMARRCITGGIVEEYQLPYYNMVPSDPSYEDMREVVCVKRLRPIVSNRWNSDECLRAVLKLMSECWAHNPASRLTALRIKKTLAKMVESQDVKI

Regarding `O=C(c1cccc(Cl)c1F)N1CCN(Cc2cccc(Nc3nccs3)n2)CC1` [MK-8745], the “% Enzyme Activity (relative to DMSO controls)” value was determined as 93.98% in assay [1] (500 nM); 94.03% in assay [2] (500 nM); 83.31% in assay [3] (500 nM); 94.61% in assay [4] (500 nM); 72.45% in assay [5] (500 nM); 99.14% in assay [6] (500 nM). The entries for the “% Enzyme Activity (relative to DMSO controls)” value in [7] (500 nM), in assay [8] (500 nM) and in [9] (500 nM) were 66.22%, 53.85% and 94.06%, respectively. Moreover, the remaining activity at 0.5 µM stood at 95.6% in assay [1] (500 nM); 94.7% in assay [2] (500 nM); 84.6% in [3] (500 nM); 95.8% in [4] (500 nM); 72.7% in assay [5] (500 nM); 100% in assay [6] (500 nM). Besides, the values for the remaining activity at 0.5 µM in assay [7] (500 nM), in assay [8] (500 nM) and in assay [9] (500 nM) were 68%, 59.2% and 95.5%, respectively.

Take `CCn1cc(-c2ccnc3[nH]c(-c4cccc(CN(C)C)c4)cc23)c(-c2ccc(NC(=O)N(C)C)cc2)n1` [GSK1070916]: the remaining activity at 0.1 µM in assay [1] is 100%; in [2], 95.3%; in assay [3], 87.6%; in [4] it was 99.8%; in [5], 85%; in assay [6] it was 97.7%. The figures for the remaining activity at 0.1 µM in assay [7], in [8] and in [9] were 85.3%, 80.4% and 98.6%, respectively.

For the compound `O=C(O)[C@]1(Cc2cccc(Nc3nccs3)n2)CC[C@@H](Oc2cccc(Cl)c2F)CC1` [MK-5108], the remaining activity at 0.1 µM worked out at 97.7% in assay [1]; 92.2% in assay [2]; 64.3% in assay [3]; 93.9% in assay [4]; 54.8% in assay [5]; 99.3% in assay [6]. Besides, the remaining activity at 0.1 µM in assay [7] was determined as 95.4%; in assay [8], 72.1%; in [9] it was 102%. Besides, the remaining activity at 0.5 µM in assay [1] (500 nM) was found to be 94.8%; in assay [2] (500 nM) it was 93.6%; in [3] (500 nM), 49.6%; in assay [4] (500 nM) it was 67.9%; in [5] (500 nM), 17.1%; in assay [6] (500 nM), 101%. The remaining activity at 0.5 µM turned out to be 76.7% in assay [7] (500 nM), 23.1% in assay [8] (500 nM) and 97.1% in assay [9] (500 nM).
